Measurements published in patent US20070196277A1, “Compositions and Methods for the Direct Therapy of Tumors” (priority 2006, published 2007).
Like-named read-outs stand apart in the source and are kept apart here.

Legend:
[1] = test system: intracerebral T9 gliosarcoma tumors; conditions: same dose delivered systemically; cited from earlier work
[2] = test system: Walker Carcinosarcoma 256 tumors; conditions: cited from earlier work
[3] = cited from earlier work
[4] = cited from earlier work; remark: listed apart in the source
[5] = cited from earlier work; remark: listed apart in the source
[6] = target: T1, dihydrouracil dehydrogenase (Homo sapiens, UniProt Q12882); conditions: cited from earlier work
T1 sequence (Q12882 4-1025): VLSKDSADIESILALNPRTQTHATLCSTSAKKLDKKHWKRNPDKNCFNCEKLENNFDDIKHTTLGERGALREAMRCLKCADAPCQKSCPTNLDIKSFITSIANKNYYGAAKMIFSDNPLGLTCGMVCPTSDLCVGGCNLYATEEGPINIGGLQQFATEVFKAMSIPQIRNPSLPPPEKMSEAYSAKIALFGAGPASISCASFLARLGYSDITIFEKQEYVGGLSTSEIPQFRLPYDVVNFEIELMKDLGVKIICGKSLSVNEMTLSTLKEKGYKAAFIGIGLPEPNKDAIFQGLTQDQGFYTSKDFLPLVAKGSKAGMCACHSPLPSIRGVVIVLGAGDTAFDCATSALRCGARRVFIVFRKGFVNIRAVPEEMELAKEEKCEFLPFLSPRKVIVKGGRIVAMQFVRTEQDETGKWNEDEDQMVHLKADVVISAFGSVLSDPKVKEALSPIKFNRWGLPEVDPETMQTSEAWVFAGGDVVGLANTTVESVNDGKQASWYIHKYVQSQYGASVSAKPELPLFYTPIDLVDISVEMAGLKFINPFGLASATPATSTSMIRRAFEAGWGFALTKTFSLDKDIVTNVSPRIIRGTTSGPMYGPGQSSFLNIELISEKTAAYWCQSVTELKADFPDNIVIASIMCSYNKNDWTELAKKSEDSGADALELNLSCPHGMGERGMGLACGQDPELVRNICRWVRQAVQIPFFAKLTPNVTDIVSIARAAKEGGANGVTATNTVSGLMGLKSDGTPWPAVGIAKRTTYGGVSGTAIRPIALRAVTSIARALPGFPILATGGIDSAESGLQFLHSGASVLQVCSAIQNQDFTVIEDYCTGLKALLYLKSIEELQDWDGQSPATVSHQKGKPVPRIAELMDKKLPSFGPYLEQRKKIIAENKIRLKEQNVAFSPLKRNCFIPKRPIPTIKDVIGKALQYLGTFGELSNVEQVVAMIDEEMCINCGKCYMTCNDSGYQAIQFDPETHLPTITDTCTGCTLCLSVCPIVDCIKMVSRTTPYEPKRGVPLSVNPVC

[7] = powder, light-protected container, room temperature; cited from earlier work
[8] = test system: marrow cells; conditions: in vitro human bone marrow assay; cited from earlier work
[9] = test system: rat brain
Source text: This conversion is based upon comparison of the mass of the rat brain (approximately 2.5 gms) and human brain (approximately 1350 gms).

[10] = test system: cat brain
Source text: This conversion is based upon comparison of the cat brain (approximately 20 gms) and human brain (approximately 1350 gms).

[11] = cited from earlier work; remark: listed apart in the source

SMILES: O=NN(CCCl)C(=O)NCCCl [BCNU, 1,3-bis(2-chloroethyl)-1-nitrosourea]
- cures [1]: no cures
- increase in life span [1]: no increase in life span
- antitumor efficacy ([2]; aqueous vehicle, injected intratumorally): had antitumor efficacy, but far less than the same BCNU dose formulated in ethanol
- therapeutic benefit ([2]; systemic administration, same dose (25 mg/kg)): no therapeutic benefit
- half life in serum [3]: about 15 minutes
- blood-brain barrier passage ([4]; in vivo): crosses the blood-brain barrier quite effectively
- total dose excreted as respiratory CO2 ([4]; in vivo): about 10%
- intact BCNU in serum ([4]; intravenous, after 60 minutes): little intact BCNU

SMILES: Oc1ncc(I)c(O)n1 [IUra, 2,4-dihydroxy-5-iodopyrimidine]
- apparent Michaelis constant of disappearance from plasma ([5]; after the infusion, nonlinear): 30 mumol/L
- maximum plasma IUra concentration ([5]; following infusion of 500 to 1200 mg/m^2 of IdUrd): 100 mumol/L
- plasma IUra relative to simultaneous IdUrd plasma concentration ([5]; following infusion of IdUrd): about 10 times
- inhibition of dihydrouracil dehydrogenase [6]: competitive inhibitor
- storage stability [7]: 1 year

SMILES: O=c1[nH]c(=O)n([C@H]2C[C@H](O)[C@@H](CO)O2)cc1I [IdUrd, 5-iodo-2′-deoxyuridine]
- cytotoxicity to marrow cells relative to IUra [8]: at least 100 times

SMILES: CCO [ethanol]
- maximally tolerated volume extrapolated to normal human brain ([9]; from rat, by brain mass 2.5 gms vs 1350 gms): 10.8 mL
- maximally tolerated volume with no apparent neurologic deficit ([9]; rat brain): 20 μl
- maximally tolerated volume with no apparent neurologic deficit ([10]; cat brain, unpublished data): 0.4 ml
- maximally tolerated volume extrapolated to normal human brain ([10]; from cat, by brain mass 20 gms vs 1350 gms): 27 mL

SMILES: CC(C)NC(C)Cc1ccc(I)cc1 (stereo not drawn) [iofetamine, N-isopropyl-p-iodoamphetamine]
- plasma elimination half-time, first phase ([11]; biphasic elimination): 1.6 ± 1.2 h
- plasma elimination half-time, second phase ([11]; biphasic elimination): 10.9 ± 6.1 h
- blood-brain barrier passage ([11]; in vivo): crosses the intact blood-brain barrier
